Results taken from patent US11214594B2, “Antimicrobial peptide having synergistic antibacterial effect with antibiotics on multidrug resistant bacteria, and use thereof” (priority 2016, dated 2022).
Converted amounts (≈) assume the structure as drawn. Like-named read-outs stand apart in the source and are kept apart here. Where a SMILES comes first, the peptide text is derived from it.

Assays:
[1] = system: E. coli; assay: microbe, parasite or virus in culture; type: cell-based, Escherichia coli; settings: 16 h
Summary of the method: (§1)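 MIC read-out = lowest peptide level with no bacterial proliferation. Strains diluted in MH medium to 2×10^6 CFU; peptide twofold serial dilutions in MH added 1:1 in microtiter wells.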

[2] = system: MDREC 1229; assay: microbe, parasite or virus in culture; type: cell-based, Escherichia coli
Summary of the method: as §1

[3] = system: P. aeruginosa; assay: microbe, parasite or virus in culture; type: cell-based, Pseudomonas aeruginosa
Summary of the method: as §1

[4] = system: A. baumannii; assay: microbe, parasite or virus in culture; type: cell-based, Acinetobacter baumannii
Summary of the method: as §1

[5] = system: MDRAB 12035; assay: microbe, parasite or virus in culture; type: cell-based, Acinetobacter baumannii
Summary of the method: as §1

[6] = system: MDRST 8009; type: cell-based, Salmonella typhimurium; settings: agent alone
Summary of the method: as §1

[7] = system: B. subtilis; assay: microbe, parasite or virus in culture; type: cell-based, Bacillus subtilis
Summary of the method: as §1

[8] = system: S. epidermidis; assay: microbe, parasite or virus in culture; type: cell-based, Staphylococcus epidermidis
Summary of the method: as §1

[9] = system: S. aureus; assay: microbe, parasite or virus in culture; type: cell-based, Staphylococcus aureus
Summary of the method: as §1

[10] = system: E. coli; assay: MIC of antibiotic during combined treatment with antimicrobial peptide; type: cell-based, Escherichia coli; settings: for Antibiotic MIC, Erythromycin / Antibiotic MIC, Linezolid / Antibiotic MIC, Vancomycin: E. coli
Summary of the method: (§2)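 MIC values for mixed peptide plus antibiotic solutions were measured in MH medium.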

[11] = system: A. baumannii; assay: as above; type: cell-based, Acinetobacter baumannii; settings: for Antibiotic MIC, Erythromycin / Antibiotic MIC, Linezolid / Antibiotic MIC, Vancomycin: A. baumannii
Summary of the method: as §2

[12] = system: E. coli; type: cell-based, Escherichia coli; settings: E. coli
Summary of the method: (§3)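 Antibiotic MIC came from antibiotic dilutions added to bacteria (2×10^6 CFU/ml, MH medium) already combined with peptide serially diluted 2:1 from its own MIC. Swapping the roles of the two agents gave the peptide MIC.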

[13] = system: MDREC 1229; type: cell-based, Escherichia coli
Summary of the method: as §3

[14] = system: A. baumannii; assay: MIC of antimicrobial peptide during combined treatment with antibiotic; type: cell-based, Acinetobacter baumannii
Summary of the method: as §3

[15] = system: MDRAB 12035; assay: as above; type: cell-based, Acinetobacter baumannii
Summary of the method: as §3

[16] = combined with peptide at 1 μg/ml
[17] = combined with peptide at 2 μg/ml
[18] = combined with peptide at 4 μg/ml
[19] = combined with peptide at 6 μg/ml
[20] = combined with peptide at 8 μg/ml
[21] = combined with peptide at 16 μg/ml
[22] = combined with peptide at 32 μg/ml
[23] = combined with peptide at 64 μg/ml
[24] = with Erythromycin […] (Conc./MIC 1)
[25] = erythromycin 4 μg/ml (Conc./MIC 1/8)
[26] = erythromycin 8 μg/ml (Conc./MIC 1/4)
[27] = erythromycin 16 μg/ml (Conc./MIC 1/2)
[28] = erythromycin 32 μg/ml (Conc./MIC 1)
[29] = vancomycin 512 μg/ml (Conc./MIC 1/2)
[30] = vancomycin 1024 μg/ml (Conc./MIC 1)

CC[C@H](C)[C@H](NC(=O)[C@H](CCCCN)NC(=O)[C@H](Cc1c[nH]c2ccccc12)NC(=O)[C@@H](N)CCCNC(=N)N)C(=O)N[C@@H](Cc1ccccc1)C(=O)N[C@@H](CCCCN)C(=O)N[C@@H](CCCCN)C(=O)N[C@H](C(=O)N1CCC[C@H]1C(=O)N[C@@H](CCCCN)C(=O)N[C@@H](Cc1ccccc1)C(=O)N[C@@H](CC(C)C)C(=O)N[C@@H](Cc1c[nH]cn1)C(=O)N[C@@H](CO)C(=O)N[C@@H](Cc1ccccc1)C(=O)N[C@@H](CCCCN)C(=O)N[C@@H](CCCCN)C(=O)N[C@@H](Cc1ccccc1)C(N)=O)[C@@H](C)CC [PapMA-5, RWK IFK KIP KFL HSF KKF-NH2] (H-RWKIFKKIPKFLHSFKKF-NH2; N-terminus assumed)
Minimal inhibitory concentration MIC [1]: 64 µg/mL (≈ 26.9 µM)
Minimal inhibitory concentration MIC [2]: 64 µg/mL (≈ 26.9 µM)
Minimal inhibitory concentration MIC [3]: 16 µg/mL (≈ 6.73 µM)
Minimal inhibitory concentration MIC [4]: 64 µg/mL (≈ 26.9 µM)
Peptide MIC, peptide alone [4]: 64 µg/mL
Minimal inhibitory concentration MIC [5]: 64 µg/mL (≈ 26.9 µM)
Peptide MIC, peptide alone [5]: 64 µg/mL
Minimal inhibitory concentration MIC [6]: 64 µg/mL (≈ 26.9 µM)
Minimal inhibitory concentration MIC [7]: >128 µg/mL
Minimal inhibitory concentration MIC [8]: >128 µg/mL
Minimal inhibitory concentration MIC [9]: >128 µg/mL
Synergistic effect of antibacterial activity with existing antibiotics compared with PapMA-1 ([10]; E. coli and MDREC1229): level similar to that of the PapMA-1 peptide
Antibiotic MIC, Erythromycin ([10]; erythromycin combined with peptide at 1 μg/ml): 128 µg/mL
Antibiotic MIC, Erythromycin ([10]; erythromycin combined with peptide at 2 μg/ml): 64 µg/mL
Antibiotic MIC, Erythromycin ([10]; erythromycin combined with peptide at 4 μg/ml): 32 µg/mL
Antibiotic MIC, Erythromycin ([10]; erythromycin combined with peptide at 6 μg/ml): 8 µg/mL
Antibiotic MIC, Erythromycin ([10]; erythromycin combined with peptide at 8 μg/ml): 2 µg/mL
Antibiotic MIC, Erythromycin ([10]; erythromycin combined with peptide at 16 μg/ml): 0.5 µg/mL
Antibiotic MIC, Erythromycin ([10]; erythromycin combined with peptide at 32 μg/ml): 0.5 µg/mL
Antibiotic MIC, Erythromycin ([10]; erythromycin combined with peptide at 64 μg/ml): 0 µg/mL
Antibiotic MIC, Linezolid ([10]; linezolid combined with peptide at 1 μg/ml): >128 µg/mL
Antibiotic MIC, Linezolid ([10]; linezolid combined with peptide at 2 μg/ml): 128 µg/mL
Antibiotic MIC, Linezolid ([10]; linezolid combined with peptide at 4 μg/ml): 64 µg/mL
Antibiotic MIC, Linezolid ([10]; linezolid combined with peptide at 6 μg/ml): 32 µg/mL
Antibiotic MIC, Linezolid ([10]; linezolid combined with peptide at 8 μg/ml): 16 µg/mL
Antibiotic MIC, Linezolid ([10]; linezolid combined with peptide at 16 μg/ml): 8 µg/mL
Antibiotic MIC, Linezolid ([10]; linezolid combined with peptide at 32 μg/ml): 2 µg/mL
Antibiotic MIC, Linezolid ([10]; linezolid combined with peptide at 64 μg/ml): 0 µg/mL
Antibiotic MIC, Vancomycin ([10]; vancomycin combined with peptide at 1 μg/ml): >128 µg/mL
Antibiotic MIC, Vancomycin ([10]; vancomycin combined with peptide at 2 μg/ml): >128 µg/mL
Antibiotic MIC, Vancomycin ([10]; vancomycin combined with peptide at 4 μg/ml): 128 µg/mL
Antibiotic MIC, Vancomycin ([10]; vancomycin combined with peptide at 6 μg/ml): 64 µg/mL
Antibiotic MIC, Vancomycin ([10]; vancomycin combined with peptide at 8 μg/ml): 32 µg/mL
Antibiotic MIC, Vancomycin ([10]; vancomycin combined with peptide at 16 μg/ml): 8 µg/mL
Antibiotic MIC, Vancomycin ([10]; vancomycin combined with peptide at 32 μg/ml): 2 µg/mL
Antibiotic MIC, Vancomycin ([10]; vancomycin combined with peptide at 64 μg/ml): 0 µg/mL
Synergistic effect of antibacterial activity with existing antibiotics compared with PapMA-1 ([11]; A. baumannii and MDRAB 12035): level similar to that of PapMA-1 peptide
Antibiotic MIC, Erythromycin [11, 16]: 32 µg/mL
Antibiotic MIC, Linezolid [11, 16]: 128 µg/mL
Antibiotic MIC, Vancomycin [11, 16]: >128 µg/mL
Antibiotic MIC, Erythromycin [11, 17]: 16 µg/mL
Antibiotic MIC, Linezolid [11, 17]: 64 µg/mL
Antibiotic MIC, Vancomycin [11, 17]: >128 µg/mL
Antibiotic MIC, Erythromycin [11, 18]: 8 µg/mL
Antibiotic MIC, Linezolid [11, 18]: 16 µg/mL
Antibiotic MIC, Vancomycin [11, 18]: 32 µg/mL
Antibiotic MIC, Erythromycin [11, 19]: 4 µg/mL
Antibiotic MIC, Linezolid [11, 19]: 8 µg/mL
Antibiotic MIC, Vancomycin [11, 19]: 16 µg/mL
Antibiotic MIC, Erythromycin [11, 20]: 0.5 µg/mL
Antibiotic MIC, Linezolid [11, 20]: 4 µg/mL
Antibiotic MIC, Vancomycin [11, 20]: 8 µg/mL
Antibiotic MIC, Erythromycin [11, 21]: 0.25 µg/mL
Antibiotic MIC, Linezolid [11, 21]: 4 µg/mL
Antibiotic MIC, Vancomycin [11, 21]: 4 µg/mL
Antibiotic MIC, Erythromycin [11, 22]: 0.125 µg/mL
Antibiotic MIC, Linezolid [11, 22]: 2 µg/mL
Antibiotic MIC, Vancomycin [11, 22]: 2 µg/mL
Antibiotic MIC, Erythromycin [11, 23]: 0 µg/mL
Antibiotic MIC, Linezolid [11, 23]: 0 µg/mL
Antibiotic MIC, Vancomycin [11, 23]: 0 µg/mL
Peptide MIC [12, 24]: 0 µg/mL
Peptide MIC ([12]; with Linezolid […] (Conc./MIC 1)): 0 µg/mL
Peptide MIC ([12]; with Vancomycin 1024 μg/ml (Conc./MIC 1)): 0 µg/mL
Peptide MIC [13, 24]: 0 µg/mL
Peptide MIC ([13]; with Linezolid 512 μg/ml (Conc./MIC 1)): 0 µg/mL
Peptide MIC during treatment with antibiotic [14, 25]: 8 µg/mL
Peptide MIC during treatment with antibiotic [14, 26]: 4 µg/mL
Peptide MIC during treatment with antibiotic [14, 27]: 2 µg/mL
Peptide MIC during treatment with antibiotic [14, 28]: 0 µg/mL
Peptide MIC during treatment with antibiotic ([14]; linezolid 32 μg/ml (Conc./MIC 1/8)): 4 µg/mL
Peptide MIC during treatment with antibiotic ([14]; linezolid 64 μg/ml (Conc./MIC 1/4)): 2 µg/mL
Peptide MIC during treatment with antibiotic ([14]; linezolid […] (Conc./MIC 1)): 0 µg/mL
Peptide MIC during treatment with antibiotic ([14]; linezolid […] (Conc./MIC 1/2)): 1 µg/mL
Peptide MIC during treatment with antibiotic [14, 29]: 0.5 µg/mL
Peptide MIC during treatment with antibiotic [14, 30]: 0 µg/mL
Peptide MIC during treatment with antibiotic ([14]; vancomycin […] (Conc./MIC 1/4)): 1 µg/mL
Peptide MIC during treatment with antibiotic ([14]; vancomycin […] (Conc./MIC 1/8)): 4 µg/mL
Peptide MIC during treatment with erythromycin [15, 25]: 4 µg/mL
Peptide MIC during treatment with erythromycin [15, 26]: 4 µg/mL
Peptide MIC during treatment with erythromycin [15, 27]: 4 µg/mL
Peptide MIC during treatment with erythromycin [15, 28]: 0 µg/mL
Peptide MIC during treatment with linezolid ([15]; linezolid 64 μg/ml (Conc./MIC 1/8)): 4 µg/mL
Peptide MIC during treatment with linezolid ([15]; linezolid 512 μg/ml (Conc./MIC 1)): 0 µg/mL
Peptide MIC during treatment with linezolid ([15]; linezolid […] (Conc./MIC 1/2)): 1 µg/mL
Peptide MIC during treatment with linezolid ([15]; linezolid […] (Conc./MIC 1/4)): 4 µg/mL
Peptide MIC during treatment with vancomycin [15, 29]: 2 µg/mL
Peptide MIC during treatment with vancomycin [15, 30]: 1 µg/mL
Peptide MIC during treatment with vancomycin ([15]; vancomycin […] (Conc./MIC 1/4)): 4 µg/mL
Peptide MIC during treatment with vancomycin ([15]; vancomycin […] (Conc./MIC 1/8)): 4 µg/mL
